Experimental data published in BigSolDB 2.1.

Nc1nc(N)nc(-c2ccncc2)n1
solubility (mole fraction)
Settings | 288.15 K | 293.15 K | 298.15 K | 303.15 K | 308.15 K | 313.15 K | 318.15 K
in THF | 0.00308 | 0.00334 | 0.00362 | 0.0039 | 0.00407 | 0.00433 | 0.00455
in ethanol | 0.000734 | 0.000813 | 0.000925 | 0.0011 | 0.00122 | 0.00137 | 0.00159
in isopropanol | 0.000426 | 0.000506 | 0.000641 | 0.000787 | 0.000925 | 0.00116 | 0.00142
in methanol | 0.00138 | 0.00149 | 0.0017 | 0.00198 | 0.00214 | 0.00237 | 0.00269
in n-propanol | 0.000641 | 0.00072 | 0.00083 | 0.000942 | 0.00111 | 0.00128 | 0.00153
